Assay results as given in ChEMBL document CHEMBL1201862, “PubChem BioAssay data set” (2004).
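Protocol summary: plate cells (96-well), add compound at 5 concentrations, incubate 48 h, interpolate endpoints linearly. At the GI50, growth is halved.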 Active and inactive are the calls of the source. Rule as the data show it: active = GI50 up to about 1.1 µM and inactive = higher.

Key:
Test in all cases: NCI anticancer screen, dose series, 48 h
[1] = test system: HCC 2998
[2] = test system: A498
[3] = test system: IGROV-1
[4] = test system: SK-MEL-28
[5] = test system: Malme-3M
[6] = test system: NCI-H522
[7] = test system: HT-29
[8] = test system: SW-620
[9] = test system: CAKI-1
[10] = test system: SF-295
[11] = test system: EKVX
[12] = test system: LOX IMVI
[13] = test system: HCT-15
[14] = test system: NCI-H460
[15] = test system: SNB-75
[16] = test system: NCI-H23
[17] = test system: RPMI-8226
[18] = test system: HL-60
[19] = test system: UACC-257
[20] = test system: ACHN

SMILES | GI50 [1] | GI50 [2] | GI50 [3] | GI50 [4] | GI50 [5] | GI50 [6] | GI50 [7] | GI50 [8] | GI50 [9] | GI50 [10] | GI50 [11] | GI50 [12] | GI50 [13] [µM] | GI50 [14] | GI50 [15] | GI50 [16] | GI50 [17] | GI50 [18] | GI50 [19] | GI50 [20]
COc1ccc(/C=C2\CC3C4CC=C5C[C@@H](O)CC[C@]5(C)C4CC[C@]3(C)\C2=N\O)cc1OC (some centres not stated) | 7.13 µM (inactive) | 5.4 µM (inactive) | 38.8 µM (inactive) | 23 µM (inactive) | 33.3 µM (inactive) | 13.9 µM (inactive) | 9.02 µM (inactive) | 43.4 µM (inactive) | 9.62 µM (inactive) | 4.13 µM (inactive) | 6 µM (inactive) | 6.92 µM (inactive) | 4.32 | 6.61 µM (inactive) | 2.33 µM (inactive) | 9.71 µM (inactive) | 7.24 µM (inactive) | 11.2 µM (inactive) | 7.94 µM (inactive) | 3.98 µM (inactive)
CC(C)=C1C2CC3(C)CCC2(C)CCC13.CC1=CCC2C3(C)CCC2(C(C)C)C1C3 (configuration not stated) | 23.1 µM (inactive) | 34 µM (inactive) | 16.5 µM (inactive) | 34.2 µM (inactive) | 43.8 µM (inactive) | 20.8 µM (inactive) | 16.2 µM (inactive) | 23.7 µM (inactive) | 17.3 µM (inactive) | 20 µM (inactive) | 21.6 µM (inactive) | 28.8 µM (inactive) | 16.9 | 17.2 µM (inactive) | 23.2 µM (inactive) | 38.3 µM (inactive) | 24.9 µM (inactive) | 24.2 µM (inactive) | 27.2 µM (inactive) | 20.3 µM (inactive)
CC(=O)/N=C1/N(/C=C2\C(=O)Oc3ccccc3C2=O)C(=O)/C(=C/c2ccc(OC(C)=O)cc2)N1C | > 100 µM (inactive) | 9.18 µM (inactive) | > 100 µM (inactive) | > 100 µM (inactive) | > 100 µM (inactive) | > 100 µM (inactive) | > 100 µM (inactive) | > 100 µM (inactive) | > 100 µM (inactive) | > 100 µM (inactive) | > 100 µM (inactive) | > 100 µM (inactive) | > 100 | > 100 µM (inactive) | 88.9 µM (inactive) | > 100 µM (inactive) | > 100 µM (inactive) | > 100 µM (inactive) | > 100 µM (inactive) | > 100 µM (inactive)
C/C(=N\O)C1CC(CC(=O)O)C1(C)C (configuration not stated) | 90.2 µM (inactive) | > 100 µM (inactive) | > 100 µM (inactive) | > 100 µM (inactive) | > 100 µM (inactive) | > 100 µM (inactive) | > 100 µM (inactive) | > 100 µM (inactive) | > 100 µM (inactive) | > 100 µM (inactive) | > 100 µM (inactive) | > 100 µM (inactive) | > 100 | > 100 µM (inactive) | > 100 µM (inactive) | > 100 µM (inactive) | > 100 µM (inactive) | > 100 µM (inactive) | > 100 µM (inactive) | > 100 µM (inactive)
N=c1c2c(=S)n(-c3ccccc3)c(=S)n(-c3ccccc3)c2nc(SCCCN2CCN(c3cccc(Cl)c3)CC2)n1-c1ccccc1 | > 100 µM (inactive) | 50.7 µM (inactive) | 97.7 µM (inactive) | > 100 µM (inactive) | > 100 µM (inactive) | > 100 µM (inactive) | – | > 100 µM (inactive) | 84.3 µM (inactive) | 45.4 µM (inactive) | > 100 µM (inactive) | 26.5 µM (inactive) | 59.2 | > 100 µM (inactive) | 78.5 µM (inactive) | > 100 µM (inactive) | > 100 µM (inactive) | > 100 µM (inactive) | > 100 µM (inactive) | > 100 µM (inactive)
COc1cccc(NC(=O)CC(=O)n2nc(-c3ccccc3)c(/N=N/c3ccc(Cl)cc3)c2-c2ccccc2)c1 | 17.2 µM (inactive) | 25.6 µM (inactive) | 7.55 µM (inactive) | 25.5 µM (inactive) | 13.7 µM (inactive) | 19.4 µM (inactive) | 19.6 µM (inactive) | 36.1 µM (inactive) | 36.6 µM (inactive) | 12.9 µM (inactive) | 24 µM (inactive) | 13.2 µM (inactive) | 11.5 | 10.5 µM (inactive) | 42.8 µM (inactive) | 20 µM (inactive) | 12 µM (inactive) | 6.43 µM (inactive) | 24.3 µM (inactive) | 19.9 µM (inactive)
CCOC(=O)/C=C1/Oc2ccccc2C1(C)O (configuration not stated) | > 100 µM (inactive) | > 100 µM (inactive) | > 100 µM (inactive) | > 100 µM (inactive) | > 100 µM (inactive) | > 100 µM (inactive) | > 100 µM (inactive) | > 100 µM (inactive) | > 100 µM (inactive) | > 100 µM (inactive) | > 100 µM (inactive) | > 100 µM (inactive) | > 100 | > 100 µM (inactive) | > 100 µM (inactive) | > 100 µM (inactive) | 84.5 µM (inactive) | > 100 µM (inactive) | > 100 µM (inactive) | > 100 µM (inactive)
COC(=O)[C@@H](NC(=O)[C@H](N)Cc1ccc(N(CCCl)CCCl)cc1)C(C)C | 5.55 µM (inactive) | 18.7 µM (inactive) | 15.9 µM (inactive) | 11.9 µM (inactive) | 1.92 µM (inactive) | 5.92 µM (inactive) | 24.6 µM (inactive) | 11 µM (inactive) | 0.481 µM (active) | 18.7 µM (inactive) | 34 µM (inactive) | 5.97 µM (inactive) | 18.4 | 10.1 µM (inactive) | 11.1 µM (inactive) | 3.66 µM (inactive) | 5.3 µM (inactive) | 1.32 µM (inactive) | 6.37 µM (inactive) | 3.56 µM (inactive)
C[Si](C)(C)OC1(C#N)c2ccccc2CCCC12CCCC2 (configuration not stated) | 16.4 µM (inactive) | 46.6 µM (inactive) | 43.3 µM (inactive) | 44.5 µM (inactive) | 39.4 µM (inactive) | 21.9 µM (inactive) | 27.8 µM (inactive) | 44.9 µM (inactive) | > 100 µM (inactive) | 34 µM (inactive) | 31.3 µM (inactive) | 22 µM (inactive) | 39 | 37.6 µM (inactive) | 49.8 µM (inactive) | 45.7 µM (inactive) | 21.6 µM (inactive) | 17.8 µM (inactive) | 21.4 µM (inactive) | 30.1 µM (inactive)
CC(C)=CC(=O)OC1C2C(C)=CC(O)C(O)C2(C)C2C3(O)OCC24C(CC(=O)OC14)C(C)C3O (configuration not stated) | 0.101 µM (active) | 1.51 µM (inactive) | 0.0581 µM (active) | 0.0362 µM (active) | 0.0286 µM (active) | 0.0298 µM (active) | 0.137 µM (active) | 0.162 µM (active) | 2.93 µM (inactive) | 0.28 µM (active) | 0.143 µM (active) | 0.0371 µM (active) | 0.476 | 0.0596 µM (active) | 0.111 µM (active) | 0.0611 µM (active) | 0.0346 µM (active) | 0.0251 µM (active) | 0.104 µM (active) | –
N[C@@H](CSCSC[C@H](N)C(=O)O)C(=O)O | > 225 µM (inactive) | > 225 µM (inactive) | > 225 µM (inactive) | > 225 µM (inactive) | > 225 µM (inactive) | > 225 µM (inactive) | > 225 µM (inactive) | > 225 µM (inactive) | > 225 µM (inactive) | > 225 µM (inactive) | > 225 µM (inactive) | > 225 µM (inactive) | > 225 | > 225 µM (inactive) | > 225 µM (inactive) | > 225 µM (inactive) | > 225 µM (inactive) | 185 µM (inactive) | > 225 µM (inactive) | –
